Results from patent US9580426B2, “Compounds that expand hematopoietic stem cells” (Novartis AG, priority 2008, dated 2017).
pEC50: −log10 of the molar value. Where a name gives a salt, the structure may show the parent alone.

Test system: Primary adult CD34+ human hematopoietic stem cells (HSCs)
Assay: % CD34+ assay: HSC expansion screen, dose response
Format: cell-based
Settings: not given
Method: Primary adult CD34^+ human hematopoietic stem cells (HSCs) are cultured and screened to identify compounds of the invention that facilitate HSC expansion. The cells are analyzed for the presence of the desired phenotype (CD34 expression). Compounds of the invention promote HSC expansion in a dose dependent manner.
Culture Medium: StemSpan SFEM medium is serum-free medium (StemCell Technologies, Vancouver, BC) supplemented with the following human recombinant cytokines: thrombopoietin, interleukin-6, Flt-3 ligand, and stem cell factor (all from R&D Systems, Minneapolis, Minn.), each at a final concentration of 50 ng/mL, with vehicle (DMSO) or a compound of the invention.
Human Cell Culture: Fresh human leukophoresed G-CSF mobilized peripheral blood from normal donors, CD34^+ cells from adult bone marrow and cryopreserved human cord blood CD34^+ cells are purchased from AllCells (Berkeley, Calif.). Human CD34^+ cells are enriched from leukophoresed G-CSF mobilized peripheral blood using magnetic cell sorting (MACS, Direct CD34 Progenitor Cell Isolation Kit, Miltenyi Biotec, Bergisch Gladbach, Germany) and cryopreserved. CD34^+ cell purity, checked by flow Cytometry, is higher than 90%. After thawing, the cell viability tested by trypan blue exclusion is higher than 70%. The thawed cells are centrifuged and resuspended with StemSpan medium before being aliquoted for immediate culture. Cells are plated at 10^4 cells/mL in a 384 well plate (Greiner Bio-One, Monroe, N.C.) with 50 μL of medium per well for 7 days. Every 7 days the cells are transferred to larger well plates and fresh medium is added to keep the cell density between 10^4 and 5×10^5 cells/mL. Cells were cultured at 37° C. in 5% CO2. For transplantation, cells were cultured in 75 cm^2 flasks before the cells were transplanted into mice. At a concentration of 1 micromolar, 4-(2-(2-(benzo[b]thiophen-3-yl)-9-isopropyl-9H-purin-6-ylamino)ethyl)phenol (compound 1, table 1; example 1), 4-(2-(2-(benzo[b]thiophen-3-yl)-9-sec-butyl-9H-purin-6-ylamino)ethyl)phenol (compound 2, table 1), and N-(2-(1H-indol-3-yl)ethyl)-2-(benzo[b]thiophen-3-yl)-9-isopropyl-9H-purin-6-amine (compound 9, table 1) each gives rise to a greater than 10-fold increase in the number of CD34^+ CD45RA^− cells derived from 1000 mPB CD34^+ HSCs after 21 days compared to vehicle. Compounds of the invention were assayed in a dose response format (1 nM to 10 μM) to determine the effective concentration that produced the desired effect in 50% of the cells (EC50).

Compound	activity relative to example 1 (less active) [fold]
Cc1n[nH]c(C)c1CCCNc1nc(-c2csc3ccccc23)nc2c1ncn2C(C)C [2-(benzo[b]thiophen-3-yl)-N-(3-(3,5-dimethyl-1H-pyrazol-4-yl)propyl)-9-isopropyl-9H-purin-6-amine]	~20

Same assay, conditions: Homo sapiens, Hematopoietic stem cell; dose response 1 nM to 10 μM; total number and/or percent of CD34+ cells

Compound	pEC50
Cc1cccc2c(CCNc3nc(-c4cncc(F)c4)nc4c3ncn4C(C)C)c[nH]c12 [Example 185]	7.62
Fc1cncc(-c2nc(NCCc3c[nH]c4ccccc34)c3ncn(C4COC4)c3n2)c1 [Example 186]	8.15
Cc1cncc(-c2nc(NCCc3c[nH]c4ccccc34)c3ncn(C4COC4)c3n2)c1 [Example 187]	7.47
CC(C)n1cnc2c(NCCc3c[nH]c4cc(F)ccc34)nc(-c3cncc(F)c3)nc21 [Example 188]	8.30
Cc1ccc2c(CCNc3nc(-c4cncc(F)c4)nc4c3ncn4C(C)C)c[nH]c2c1 [Example 189]	7.59
Cc1[nH]c2ccccc2c1CCNc1nc(-c2cncc(F)c2)nc2c1ncn2C(C)C [Example 190]	8.30
CC(C)n1cnc2c(NCCc3c[nH]c4cccc(F)c34)nc(-c3cncc(F)c3)nc21 [Example 195]	8.52
CC(C)n1cnc2c(NCCc3c[nH]c4c(F)cccc34)nc(-c3cncc(F)c3)nc21 [Example 196]	8.70
Cc1cccc2[nH]cc(CCNc3nc(-c4cncc(F)c4)nc4c3ncn4C(C)C)c12 [Example 197]	7.96
CC(C)n1ccc2c(NCCc3ccc(O)cc3)nc(-c3csc4ccccc34)nc21 [Example 198]	5.96
CC(C)n1cnc2c(NCCc3cnc4[nH]ccc4c3)nc(-c3cccnc3)nc21 [Example 199]	5.80

The remaining lines, values ahead:

pEC50	Compound
9.00	Cc1cc(CCNc2nc(-c3cncc(F)c3)nc3c2ncn3C(C)CO)ccc1O (centres unmarked) [Example 200]
5.68	CC(C)n1cnc2c(NCCc3c[nH]c4ccc(OC(=O)CCCCCNC(=O)CCCC[C@@H]5SC[C@@H]6NC(=O)N[C@@H]65)cc34)nc(-c3csc4ccccc34)nc21 [Example 210, 3-(2-(2-(benzo[b]thiophen-3-yl)-9-isopropyl-9H-purin-6-ylamino)ethyl)-1H-indol-5-yl 6-(5-((3aS,4S,6aR)-2-oxohexahydro-1H-thieno[3,4-d]imidazol-4-yl)pentanamido)hexanoate]

Test system: mPB-derived CD34+ cells
Assay: Genome-wide transcriptional profiling
Format: cell-based, human
Settings: 1 μM; 24 hours
Excerpt: The two genes that were the most highly repressed by treatment with Example 1 (cytochrome P450 1B1 [CYP1B1] and the aryl hydrocarbon receptor repressor [AHRR]) are transcriptionally regulated by the aryl hydrocarbon receptor (AHR). Therefore, compounds of the invention could be acting as an antagonist of AHR signaling.

down-regulation of 5 genes (most repressed: CYP1B1, AHRR)	Compound
none were significantly affected	Cc1n[nH]c(C)c1CCCNc1nc(-c2csc3ccccc23)nc2c1ncn2C(C)C [2-(benzo[b]thiophen-3-yl)-N-(3-(3,5-dimethyl-1H-pyrazol-4-yl)propyl)-9-isopropyl-9H-purin-6-amine]

Same assay, conditions: 24 hours

Compound	up-regulation of 5 genes of >50,000 probe sets
Cc1n[nH]c(C)c1CCCNc1nc(-c2csc3ccccc23)nc2c1ncn2C(C)C [2-(benzo[b]thiophen-3-yl)-N-(3-(3,5-dimethyl-1H-pyrazol-4-yl)propyl)-9-isopropyl-9H-purin-6-amine]	induced to some degree

Test system: CYP1B1 mRNA in mPB-derived CD34+ cells
Assay: TCDD-mediated CYP1B1 mRNA expression by qPCR
Format: cell-based, human
Settings: 3 nM; vehicle 0.01% toluene
Method: Further, the ability of Example 1 to block 2,3,7,8-tetrachlorodibenzo-p-dioxin (TCDD, dioxin)-mediated CYP1B1 mRNA expression by qPCR in mPB-derived CD34^+ cells was determined. Treatment with TCDD (3 nM) caused a 4.5-fold increase in the level of CYP1B1 mRNA compared with the vehicle control (0.01% toluene). […] To determine the effects of Example 1 in AHR transcription the ability of Example 1 to inhibit a dioxin-induced AHR dependent luciferase reporter gene assay was tested.

Compound	increase in the level of CYP1B1 mRNA compared with vehicle control [fold]
Clc1cc2c(cc1Cl)Oc1cc(Cl)c(Cl)cc1O2 [TCDD, 2,3,7,8-tetrachlorodibenzo-p-dioxin]	4.5

Test system: mPB-derived CD34+ cell
Assay: 7 day culture with AHR antagonists, expansion of CD34+ cells
Format: cell-based, human
Settings: 0.75 μM; 7 days
Method: To further explore the role of AHR signaling in HSCs two other AHR antagonists (alpha-naphthoflavone and CH-223191) were tested. Both compounds lead to dose dependent increases in the number of CD34^+ cells when cultured with mPB-derived CD34^+ cell for 7 days: inclusion of 1 μM CH223191 afforded a 2.2-fold expansion of CD34^+ cells; 0.75 μM α-naphthoflavone afforded a 1.9-fold expansion of CD34^+ cells while 0.75 μM Example 1 afforded a 3.4-fold expansion of total CD34^+ cells. […] Forty-eight hours following transduction, CD34+GFP^+ cells were purified by cell sorting and the levels of AHR were determined by qPCR. Both AHR targeting shRNAs led to decreases in AHR expression following transduction (81% with sh111 and 51% with sh242). These decreases were not seen in cells lacking GFP or in cells transduced with control virus.

Compound	expansion of CD34+ cells [fold]
O=c1cc(-c2ccccc2)oc2c1ccc1ccccc12 [α-naphthoflavone, alpha-naphthoflavone]	1.9

Same assay, conditions: 1 μM; 7 days

Compound	expansion of CD34+ cells [fold]
Cc1ccccc1N=Nc1ccc(NC(=O)c2ccnn2C)c(C)c1 [CH223191, 2-methyl-2H-pyrazole-3-carboxylic acid (2-methyl-4-o-tolylazophenyl)amide]	2.2

Test system: not listed separately
Assay: Water uptake by thermogravimetry after exposure to relative humidity
Format: physicochemical
Settings: 80% rh during 24 hours
Method: Mesylate salt: 4-(2-(2-(benzo[b]thiophen-3-yl)-9-isopropyl-9H-purin-6-ylamino)ethyl)phenol free base (0.60 g; 1.40 mmoles) are dissolved in 12 ml acetone at 50° C. Methanesulfonic acid (0.137 g; 1.40 mmoles) is added drop wise. The crystallization takes place rapidly. The white suspension is allowed to cool over about 30 minutes with cooling to room temperature. The slurry is stirred for 18 hours at room temperature and filtered. The solid is washed with acetone (6 ml) in three portions and dried first for about 3 hours at 50° C./ca. 10 mbar and then for about 16 hours at 80° C./ca. 10 mbar. […] The water uptake was estimated by thermogravimetry after exposure to relative humidity (80% rh) during 24 hours. A water uptake of 0.4% was observed.

Compound	water uptake
CC(C)n1cnc2c(NCCc3ccc(O)cc3)nc(-c3csc4ccccc34)nc21 [Besylate salt, 4-(2-(2-(benzo[b]thiophen-3-yl)-9-isopropyl-9H-purin-6-ylamino)ethyl)phenol]	about 0.05%
CC(C)n1cnc2c(NCCc3ccc(O)cc3)nc(-c3csc4ccccc34)nc21 [Esylate salt, 4-(2-(2-(benzo[b]thiophen-3-yl)-9-isopropyl-9H-purin-6-ylamino)ethyl)phenol]	0.05%

Further lines, results first:

water uptake	Compound
0.3%	CC(C)n1cnc2c(NCCc3ccc(O)cc3)nc(-c3csc4ccccc34)nc21 [Hemi-fumarate salt, 4-(2-(2-(benzo[b]thiophen-3-yl)-9-isopropyl-9H-purin-6-ylamino)ethyl)phenol]
No water uptake	CC(C)n1cnc2c(NCCc3ccc(O)cc3)nc(-c3csc4ccccc34)nc21 [Hydrobromide salt, 4-(2-(2-(benzo[b]thiophen-3-yl)-9-isopropyl-9H-purin-6-ylamino)ethyl)phenol]
0.3%	CC(C)n1cnc2c(NCCc3ccc(O)cc3)nc(-c3csc4ccccc34)nc21 [Hydrochloride salt, 4-(2-(2-(benzo[b]thiophen-3-yl)-9-isopropyl-9H-purin-6-ylamino)ethyl)phenol]
0.4%	CC(C)n1cnc2c(NCCc3ccc(O)cc3)nc(-c3csc4ccccc34)nc21 [Mesylate salt, 4-(2-(2-(benzo[b]thiophen-3-yl)-9-isopropyl-9H-purin-6-ylamino)ethyl)phenol]
less than 0.05%	CC(C)n1cnc2c(NCCc3ccc(O)cc3)nc(-c3csc4ccccc34)nc21 [Napadisylate salt, 4-(2-(2-(benzo[b]thiophen-3-yl)-9-isopropyl-9H-purin-6-ylamino)ethyl)phenol]
1.7%	CC(C)n1cnc2c(NCCc3ccc(O)cc3)nc(-c3csc4ccccc34)nc21 [Orotate salt, 4-(2-(2-(benzo[b]thiophen-3-yl)-9-isopropyl-9H-purin-6-ylamino)ethyl)phenol]
0.2%	CC(C)n1cnc2c(NCCc3ccc(O)cc3)nc(-c3csc4ccccc34)nc21 [Sulfate salt, 4-(2-(2-(benzo[b]thiophen-3-yl)-9-isopropyl-9H-purin-6-ylamino)ethyl)phenol]
0.4%	CC(C)n1cnc2c(NCCc3ccc(O)cc3)nc(-c3csc4ccccc34)nc21 [Tosylate salt, 4-(2-(2-(benzo[b]thiophen-3-yl)-9-isopropyl-9H-purin-6-ylamino)ethyl)phenol]
